Assay results taken from US8940333B2, “Amphiphilic block copolymers and nanoparticles comprising the same” (priority 2005, dated 2015).

What was measured:
erythrocyte = assay: Hemolysis test (ASTM F756); assay type: cell-based
[1] = system: macrophage culture (RAW 264.7); assay: In vitro stealth test: reactive oxygen species (DCFDA to DCF) in macrophage culture, flow cytometer; assay type: cell-based; settings: RAW 264.7, 1 μm PMA, 24-hour activation (positive control)

SMILES	Hemolytic grade (erythrocyte)	Hemolytic index (%) (erythrocyte)	mean fluorescent intensity of DCF [1]
CC[C@@]1(O)C(=O)OCc2c1cc1n(c2=O)Cc2cc3ccccc3nc2-1 [Camptothecin]	slight hemolysis	5.84	–
CCCCCCCCCCCCCC(=O)O[C@@H]1[C@@H](C)[C@@]2(O)[C@@H](C=C(CO)C[C@]3(O)C(=O)C(C)=C[C@@H]23)[C@@H]2C(C)(C)[C@]12OC(C)=O [PMA]	–	–	20.13
